# Test results reported in patent US7465541B1, “Vitamin D3-responsive sequences located 5′-upstream of p27/kip 1 gene and methods of screening for pharmaceutical agents using the sequences” (Toshiyuki Sakai, priority 2000, dated 2008).
# How the values were obtained:
# NF-YA mRNA = experiment: RT-PCR of NF-YA mRNA in treated U937 cells; assay type: cell-based, human; details: 10^−7 M, time course, primers F1/R and F2/R
# Experimental: RT-PCR of NF-YA mRNA was carried out as follows. […] RT-PCR was performed using the RNA PCR Kit Ver. 2.1 (Takara, Tokyo, Japan). The forward (F) and reverse (R) primers for NF-YA-short and -long were […] (Primer F1) (SEQ ID NO: 12), […] (primer F2) (SEQ ID NO: 13), and […] (primer R) (SEQ ID NO: 14). The forward and reverse primers for G3PDH were […] (SEQ ID NO: 15) and […] (SEQ ID NO: 16). One microgram of total RNA was used for RT-PCR. PCR was performed for 25 and 20 cycles to detect NF-YA subunits and G3PDH, respectively. PCR products were subjected to electrophoresis in a 3% agarose gel. The primers for NF-YA were designed to detect two different isoforms simultaneously and were located in regions that were conserved in the two isoforms (Li, X. Y. et al. (1992) J. Biol. Chem., 267, 8984-8990).
# [1] = system: −555/−512 region of the human p27^Kip1 promoter fused to SV40 early promoter; experiment: Luciferase reporter assay with −555/−512 sequence upstream of SV40 early promoter in U937 cells; assay type: cell-based
# Text: Furthermore, the present inventors generated constructs containing four tandem copies of the specific sequence of the p27^Kip1 promoter fused to a minimal promoter. A double-stranded 52-bp DNA fragment containing a 44-bp sequence corresponding to the −555/−512 region of the human p27^Kip1 promoter and linker sites (indicated by lower case letters below) at both ends was generated from two oligonucleotides. The top strand (5′-aggg[…]-3′) (SEQ ID NO: 5) and the bottom strand (5′-ccct[…]-3′) (SEQ ID NO: 6) were annealed, ligated, blunted and subcloned into the SmaI site upstream of the SV40 early promoter in the PicaGene Promoter Vector 2 (Nippon Gene, Tokyo, Japan) in a forward or reverse orientation to generate PGPV2[−555/−512wild]4 and PGPV2[R−555/−512wiId]4, respectively. Similarly, three types of double-stranded mutated oligonucleotides of the 44-bp sequence were also inserted into the same vector to generate the mutated constructs, PGPV2[−555/−512mSp1-1]4, PGPV2[−555/−512 mSp1-2]4, PGPV2[−555/−512mCTf]4 (see Table 1). Oligonucleotides used in Example 3-6 are shown as follows (SEQ ID NOS: 5, 6, and 18-31).
# The present inventors concluded that the region between −555 and −512 relative to the translation start site (−118 and −75 relative to the transcription start site) was sufficient for vitamin D3-induced transcription of the p27^Kip1 gene. Furthermore, both the Sp1-1 site and the CCAAT box in this region were vitamin D3-responsive elements and were required for vitamin D3-induced transcription of the p27^Kip1 gene.
# p27^Kip1 mRNA = p27^Kip1 mRNA induction in U937 cells (Northern analysis); assay type: cell-based, human; details: peaked between 24 h and 48 h, compared with 0 h
# Experimental: Human cervical cancer cell line, C33A, human osteosarcoma cell lines, U2OS and MG63 were maintained in Dulbecco modified Eagle media containing 10% (v/v) fetal bovine serum (FBS) and cultivated in an atmosphere of 5% CO2 at 37° C. Human myelomonocytic cell line U937 (a generous gift from Dr. Y. Honma of the Saitama Cancer Research Institute, Saitama, Japan) was cultivated in Rosweli Park Memorial Institute (RPMI) 1640 media supplemented with 10% (v/v) fatal bovine serum in an atmosphere of 5% CO2.
# For this purpose, a series of 5′ deletion constructs of the p27^Kip1 promoter were examined.
# NF-I = experiment: Gel shift assay, NF-I binding to NF-Iwild probe, nuclear extracts of treated U937 cells; assay type: cell-based, human; details: U937 cells treated 36 h, versus vehicle
# Experimental: Two μg of each nuclear extract was incubated with the −555/−512wild probe (lanes 1-3), −534/−512wild probe (lanes 4-6), or NF-Iwild probe (lanes 7-12) to detect Sp1, NF-Y, and NF-I, respectively.
# Nuclear extracts of U937 cells were prepared according to the procedure of Andrew and Faller (Andrews, N. C. and Faller, D. V. (1991) Nucleic Acids Res., 19, 2499). […] Gel shift assays were carried out as described by Orita et al. (Orita, T. et al. (1997) J. Biol. Chem., 272, 23216-23223). The reaction mixture for the gel shift assay (25 μl final volume) contained 20 mM Tris-HCl (pH 8.0), 100 mM KCl, 10% glycerol, 1 μg of poly(dl-dC), and 2 μg of nuclear extract. After preincubation for 15 minutes at 23° C., probe DNA (approximately 0.5 ng, 10,000 cpm) was added to the mixture, and the binding reaction was allowed to proceed at 23° C. for 20 min. The resulting product was then resolved by electrophoresis on 4% acrylamide-bisacrylamide (29:1), 0.5×TBE nondenaturing gel at 10 V/cm for 150 min. Competition analyses were performed by mixing the indicated amount of appropriate competitor DNA to the binding reaction prior to addition of nuclear extracts. In supershift experiments, antibodies against Sp1 (sc-59X; Santa Cruz), Sp3 (sc-644X; Santa Cruz), and C/EBP-α (sc-7204X; Santa Cruz) were purchased. The antibodies against NF-YA, -YB, and -YC (IgG fraction) were kindly provided by Drs. […]
compound,measurement,setting,value
"C=C1/C(=C\C=C2/CCC[C@]3(C)[C@@H]([C@H](C)CCCC(C)(C)O)CC[C@@H]23)C[C@@H](O)C[C@@H]1O [vitamin D3, 1,25-dihydroxyvitamin D3]",long form of NF-YA mRNA,NF-YA mRNA,decreased gradually
same,"response to vitamin D3, one copy of the 44 bp fragment",[1],did not respond
same,"stimulatory effect, PGPV2[−555/−512mCTF]4","[1]; 40 h, 10^−7 M",abolished any stimulatory effect
same,"stimulatory effect, PGPV2[−555/−512 mSp1-1]4","[1]; 40 h, 10^−7 M",abolished any stimulatory effect
same,"response to vitamin D3, four copies of the 44 bp fragment (PGPV2[−555/−512wild]4)","[1]; 40 h, 10^−7 M, orientation-dependent",conferred significant response
same,"luciferase activity, PGPV2[−555/−512 mSp1-2]4","[1]; 40 h, 10^−7 M, similar to p27PF and PGPV2[−555/−512wild]4",activated
same,p27^Kip1 mRNA induction,p27^Kip1 mRNA,approximately 4 fold
same,DNA binding activity of NF-I,NF-I,not changed
